Experimental data reported in patent publication US12396977B2, “Composition for treating degenerative brain diseases, containing 2-pentylfuran as active ingredient” (DAEGU GYEONGBUK INSTITUTE OF SCIENCE AND TECHNOLOGY, priority 2019, dated 2025).
One block for each molecule: values may come before it.

How the values were obtained:
[1] = target: T1, Olfr110 (Mus musculus, UniProt A2RT31); assay: Luciferase assay in Hana3A cells, Olfr110; type: cell-based; settings: for reactivity of Olfr110 (relative luciferase activity): Hana3A cells
T1 construct: Full-length odorant receptor genes from mouse and human genomic DNA were amplified using appropriate primers; Lucy (N); Flag (N); Rho (N); expressed in transfected cells; host or cells: Hana3A cells, co-transfected with RTP1S, pCRELuc and pRL-SV40
T1 sequence (A2RT31 1-317): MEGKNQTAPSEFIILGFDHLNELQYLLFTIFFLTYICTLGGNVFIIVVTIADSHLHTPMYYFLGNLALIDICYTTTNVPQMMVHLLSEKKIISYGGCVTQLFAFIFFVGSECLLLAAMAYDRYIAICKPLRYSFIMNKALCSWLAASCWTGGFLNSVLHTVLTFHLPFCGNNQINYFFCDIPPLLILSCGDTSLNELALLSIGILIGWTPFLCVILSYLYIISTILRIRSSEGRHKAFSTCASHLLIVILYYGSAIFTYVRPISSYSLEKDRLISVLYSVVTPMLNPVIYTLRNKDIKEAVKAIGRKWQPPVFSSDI
Description: (§1) Next, Hana3A cells were transfected with RTP1S, and their location and presence on the cell membrane were confirmed as previously described (Behrens et al., 2009; Zhuang and Matsunami, 2008). Such transfection was performed using Lipofectamine 2000 (#11668-019; Thermo Fisher Scientific) according to the manufacturer's instructions. More specifically, the transfected cells were grown on a coverslip (#0101050; Marienfeld) coated with poly D lysine (10 μg/ml; #P7280; Sigma Aldrich). Next, the cells were washed with a warm PBS solution and cooled with ice for 30 minutes to block endocytosis. […] The cells were then incubated with normal horse serum (#008-000-121; Jackson ImmunoResearch) at room temperature for 1 hour. […] After being washed with PBS, the cells were treated with a Cy3-conjugated donkey anti-mouse antibody (1:1,000; #715-165-150; Jackson ImmunoResearch), an Alexa488-conjugated donkey anti-mouse antibody (1:1,000; #715-545-150; Jackson ImmunoResearch), or a Cy3-conjugated donkey anti-rabbit antibody (1:1,000; #711-165-152; Jackson ImmunoResearch) at room temperature for 1 hour. The cells were mounted with a Vectashield fluorescent mounting medium containing DAPI (#H-1200; Vector Laboratories). The expression of heterologous odorant receptors was analyzed with a confocal laser scanning microscope LSM700 and ZEN software (Zeiss).
(§2) The Dual-Glo luciferase assay system (#E2940; Promega) was used for odorant receptor ligand screening. More specifically, Hana3A cells were streaked and spread on a white polystyrene 96-well plate (#353296; BD Biosciences) one day before transfection. pCRELuc (1 μg; #219076; Agilent Technologies), pRL-SV40 (1 μg; #E2231; Promega), RTP1S (1 μg), and OR (6 μg; or Mock) vectors were transfected for 24 hours in each plate. Each plate was analyzed using Lipofectamine 2000 (#11668-019; Thermo Fisher Scientific) according to the manufacturer's protocol. Transfected cells were stimulated in CD293 medium (#11913-019; Thermo Fisher Scientific) at 37° C. for 4 hours using diluted odorants at various concentrations. The activity of luciferase was normalized by the activity of Renilla luciferase. The amount of light emitted was measured using a SpectraMax L microplate reader (Molecular Devices).

[2] = tested on: Olfr111; assay: Luciferase assay in Hana3A cells, Olfr111; type: cell-based, mouse; settings: for reactivity of Olfr111 (relative luciferase activity): Hana3A cells
Description: as §1, §2

[3] = tested on: primary microglia; assay: Active oxygen (ROS) production in primary microglia; type: cell-based, mouse; settings: for ROS (active oxygen) generation induced by 2-PF after inhibitor pretreatment: then 2-PF
Description: Superoxide concentrations were calculated by measuring the degree of decrease in cytochrome c using a VersaMax microplate reader (Babior et al., 1973). Microglia were cultured on a 96-well plate at a concentration of 1.0×10^5 cells/well, and the microglia were activated by a 10 μM ATP solution containing 2-pentylfuran and cytochrome c, or a solution of Sup mixed with cytochalasin B (5 μM; #C66762; Sigma Aldrich). The resulting ROS concentration was measured by changes in light absorption at 550 nm at intervals of 1 minute for 25 minutes.
Active oxygen levels were measured using 2′,7′-dichlorodihydrofluorescein diacetate (DCF-DA, #D6883; Sigma Aldrich) using a method that had undergone minor modifications from the existing method. (Bae et al., 2001). More specifically, the primary microglia were treated with 10 μM DCF-DA in a 24-well plate (5.0×10^5 cells/well) […] at a temperature of 37° C. for 30 minutes. One plate was treated with 2-PF and one was not. Cells in each well were measured by a flow cytometer (FACS Accuri™ C6; BD Biosciences). MFI was measured in the same manner as described above.

[4] = tested on: primary microglia; assay: Cytokine mRNA (qRT-PCR) and protein (ELISA) in microglia; type: cell-based, mouse; settings: then 2-PF
Description: In the present example, microglia or astrocytes were primarily extracted from the cerebral cortex of E18.5 mouse embryos (Tamashiro et al., 2012) and then cultured as in Example 1. More specifically, the cortex of mouse embryos was collected and then stored in a cold supernatant (#14170-112; Thermo Fisher Scientific) and pretreated at 37° C. in a 0.25% trypsin solution (#15090-046; Thermo Fisher Scientific) for 20 minutes. Then, cells were plated in a minimal nutrient medium supplemented with 10% FBS (#SH30919.03; Hyclone), 2 mM L-glutamine (#25030-081; Thermo Fisher Scientific), 0.04% glucose (#G7021; Sigma Aldrich), and 1% penicillin/streptomycin (#15140-122; Thermo Fisher Scientific), and then filtered using a 40 μm strainer (#352340; Thermo Fisher Scientific). Microglia were plated at a density of 1.2×10^7 cells in a T75 flask coated with poly-D-lysine (#P7280; Sigma Aldrich). After 2 hours, the mixture was transferred to a Dulbecco's modified eagle medium (DMEM; #SH30243.01; Hyclone), and the medium was replaced every 3 days for 2 weeks. In order to separate the microglia from this mixed solution, first, the mixed solution was shaken at 37° C. at 150 rpm for 2 hours, then the mixed solution containing microglia was separately extracted from the top and transferred, and then the microglia were isolated by centrifugation at 1300 rpm at room temperature for 5 minutes. The isolated microglia were transferred to a culture medium. After the microglia were transferred, the microglia were completely removed by shaking the remaining mixed solution at 160 rpm for 1 day for culturing. Then, astrocytes were isolated by treatment with 0.25% trypsin and again cultured in a T75 flask for 4 days for collection. The purity of the collected microglia and astrocytes was evaluated by qRT-PCR analysis and by immunocytochemistry using Iba-1 and Gfap, which are a marker gene and a protein, respectively.
For the measurement of mRNA, RNA was isolated from red blood cells, microglia, astrocytes, Hana3A cells, or cerebral cortical cells using the MagNa Lyser (Roche Molecular Diagnostics) using TRIzol reagent (Invitrogen, Carlsbad, CA.) according to the manufacturer's protocol. Then, cDNA was generated through reverse transcription using the isolated mRNA (using PrimeScript™ 1st str and cDNA Synthesis kit—#6110; Takara Bio Inc). This process was quantitatively measured in real time through quantitative real-time-PCR (using LightCycler® 480 SYBR Green I Master). The measured values were calculated using the 2-ΔΔCt method.
The expression levels of Tnf, il6, and Il1b cytokines secreted from microglia were measured according to the manufacturer's protocol. More specifically, the expression levels were measured by ELISA 24 hours after treatment with 2-PF or a cell supernatant. […]

[5] = tested on: primary microglia; assay: Western blot of phosphorylated signalling proteins in primary microglia; type: cell-based, mouse; settings: inhibitor pre-culture, then 2-PF
Description: Cells and tissues were prepared using the T-PER® reagent (#78510; Thermo Fisher Scientific) with protease inhibitors (#04-693-116-001; Roche Molecular Diagnostics), DMSF (Sigma-Aldrich) and lysed using the MagNA Lyser (Roche Molecular Diagnostics). A total protein extract was quantified by the Bradford assay. The sample was dissolved in 7.5% SDS-PAGE or 4 to 20% gradient mini-PROTEIN TGX Precast Gels (#456-1064; Bio-Rad Laboratories), and then blotted onto nitrocellulose membranes (#10600002; GE Healthcare). The membrane was then blocked in 5% skimmed milk powder, TBST, 0.1% TWEEN® 20 (#P9416; Sigma-Aldrich) and Tris-buffered saline for 1 hour, and then incubated with primary antibodies at 4° C. overnight. The antibodies are as follows: Olfr110 (36 kDa; 1:1,000; #ab177327; Abcam), anti rhodopsin (39 kDa; 1:1,000; #MABN15; Millipore), CREB (43 kDa; 1:1,000; #9197; Cell Signaling Technology), phospho-CREB (43 kDa; 1:1,000; #9198; Cell Signaling Technology), ERK (44 kDa; 1:1,000; #sc094; Santa Cruz), phospho-ERK (42, 44 kDa; 1:1,000; #sc-7383; Santa Cruz), phospho-Akt (60 kDa; 1:500; sc-293125; Santa Cruz), phospho-JNK (46, 54 kDa; 1:500; sc-6254; Santa Cruz), phosphor-p38 (38 kDa; 1:1,000; sc-7973; Santa Cruz), or beta-Actin (45 kDa; 1:10,000; #4967; Cell Signaling Technology). Furthermore, an isotype-matched horseradish peroxidase-conjugated secondary antibody was used at 1:100,000 with anti-rabbit in TBST (#711-035-152; Jackson ImmunoResearch) and 1:40,000 with anti-mouse (#715-035-150; Jackson ImmunoResearch) at room temperature for 2 hours. As an immunoreactive protein band, SuperSignal™ West Pico Chemiluminescent Substrate (#34080; Thermo Fisher Scientific) was used.

[6] = tested on: Olfr920, Olfr1417, and Olfr99; settings: Hana3A cells; MOCK also responded
Description: Next, Hana3A cells were transfected with RTP1S, and their location and presence on the cell membrane were confirmed as previously described (Behrens et al., 2009; Zhuang and Matsunami, 2008). Such transfection was performed using Lipofectamine 2000 (#11668-019; Thermo Fisher Scientific) according to the manufacturer's instructions. More specifically, the transfected cells were grown on a coverslip (#0101050; Marienfeld) coated with poly D lysine (10 μg/ml; #P7280; Sigma Aldrich). Next, the cells were washed with a warm PBS solution and cooled with ice for 30 minutes to block endocytosis. […] The cells were then incubated with normal horse serum (#008-000-121; Jackson ImmunoResearch) at room temperature for 1 hour. The resulting cells were incubated with mouse anti rhodopsin (anti-Rho; 1:1,000; #MABN15; Millipore) or rabbit anti Olfr110 (#ab177327; Abcam) at 4° C. overnight. […] The expression of heterologous odorant receptors was analyzed with a confocal laser scanning microscope LSM700 and ZEN software (Zeiss). […] Each plate was analyzed using Lipofectamine 2000 (#11668-019; Thermo Fisher Scientific) according to the manufacturer's protocol. […] The amount of light emitted was measured using a SpectraMax L microplate reader (Molecular Devices).

SMILES: Cc1ccoc1C [2,3-dimethylfuran]
binding to Olfr110 [1]: do not bind | binding to Olfr111 [2]: do not bind

SMILES: O=S(=O)(NCCNC/C=C/c1ccc(Br)cc1)c1cccc2cnccc12 [H-89]
Tnf and Il6 cytokine levels induced by 2-PF after inhibitor pretreatment [4]: great decrease

SMILES: Nc1ncnc2c1ncn2C1CCCO1 (stereo not drawn) [SQ22536]
Tnf and Il6 cytokine levels induced by 2-PF after inhibitor pretreatment [4]: great decrease | CREB and ERK phosphorylation after inhibitor pre-culture and 2-PF [5]: greatly decreased

SMILES: COc1ccc2c(c1)CC[C@@H]1[C@@H]2CC[C@]2(C)[C@@H](NCCCCCCN3C(=O)C=CC3=O)CC[C@@H]12 [U73122]
ROS (active oxygen) generation induced by 2-PF after inhibitor pretreatment [3]: completely inhibited | Tnf and Il6 cytokine levels induced by 2-PF after inhibitor pretreatment [4]: relatively less decrease

SMILES: O=C1OC2(c3ccccc31)c1ccc(O)c(O)c1Oc1c2ccc(O)c1O [gallein]
ROS (active oxygen) generation induced by 2-PF after inhibitor pretreatment [3]: similarly inhibited

SMILES: COc1cccc(-c2cc(=O)c3ccccc3o2)c1N [pd98059]
Tnf and Il6 cytokine levels induced by 2-PF after inhibitor pretreatment [4]: relatively less decrease | CREB and ERK phosphorylation after inhibitor pre-culture and 2-PF [5]: greatly decreased

Further lines, with some results ahead:

binding to Olfr110 [1]: do not bind | mode of action at Olfr110 [1]: competitive inhibitor (antagonist)
SMILES: CCc1ccco1 [2-EF, 2-ethylfuran]
active oxygen produced by Sup MOI of 100 ([3]; 2-EF pretreated at 0, 100, 300, 500 μM): decreased as the concentration of 2-EF increased | active oxygen produced by Sup MOI 5 plus 500 μM 2-PF ([3]; 2-ethylfuran 0, 100, 300, 500 μM simultaneously): the higher the concentration of 2-EF added, the lower the concentration of active oxygen produced | binding to Olfr111 [2]: do not bind

reactivity of Olfr110 (relative luciferase activity) [1]: showed reactivity
SMILES: CCCCc1ccco1 [2-butylfuran]
reactivity of Olfr111 (relative luciferase activity) [2]: showed reactivity

binding to Olfr110 [1]: do not bind
SMILES: CCCCCCCc1ccco1 [2-heptylfuran]
binding to Olfr111 [2]: do not bind

binding to Olfr110 [1]: do not bind | reactivity of Olfr110 (relative luciferase activity) [1]: showed reactivity
SMILES: CCCCCCc1ccco1 [2-hexylfuran]
binding to Olfr111 [2]: do not bind | reactivity of Olfr111 (relative luciferase activity) [2]: showed reactivity

binding to Olfr110 [1]: do not bind
SMILES: Cc1ccco1 [2-methylfuran]
binding to Olfr111 [2]: do not bind

reactivity of Olfr110 (relative luciferase activity) [1]: showed reactivity
SMILES: CCCc1ccco1 [2-propylfuran]
reactivity of Olfr111 (relative luciferase activity) [2]: showed reactivity

reactivity of Olfr110 (relative luciferase activity) [1]: showed reactivity
SMILES: CC(C)(C)c1ccco1 [2-t-butylfuran]
reactivity of Olfr111 (relative luciferase activity) [2]: showed reactivity

reactivity of the remaining three receptors (luciferase) [6]: non-specific reaction
SMILES: CCO [ethanol]
